ChEMBL document CHEMBL1201862, “PubChem BioAssay data set” (2004)
Active and inactive are the calls of the source.

Experiments:
[1] = target: T1, Streptokinase A (Streptococcus pyogenes serotype M1, UniProt P10520); experiment: viability-normalized secreted streptokinase activity reduction – plasminogen activation absorbance, OD405, dose response (AID 1914); type: functional, Streptococcus pyogenes M1 GAS;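 note: secreted streptokinase activity via plasminogen activation per viability signal from cell pellet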
T1 sequence (P10520 whole entry): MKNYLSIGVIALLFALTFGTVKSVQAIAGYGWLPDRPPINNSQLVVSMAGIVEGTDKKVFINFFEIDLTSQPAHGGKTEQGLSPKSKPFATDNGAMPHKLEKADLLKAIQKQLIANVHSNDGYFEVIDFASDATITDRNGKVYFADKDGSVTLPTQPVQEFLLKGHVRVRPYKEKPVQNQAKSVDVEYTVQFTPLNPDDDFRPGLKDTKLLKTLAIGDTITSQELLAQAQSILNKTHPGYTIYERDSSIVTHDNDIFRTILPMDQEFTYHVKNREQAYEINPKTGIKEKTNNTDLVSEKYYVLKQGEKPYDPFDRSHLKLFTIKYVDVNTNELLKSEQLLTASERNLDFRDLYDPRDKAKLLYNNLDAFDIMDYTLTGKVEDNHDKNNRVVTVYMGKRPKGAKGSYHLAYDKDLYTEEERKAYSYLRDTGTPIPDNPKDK

[2] = target: Serine/threonine-protein phosphatase PP1-alpha catalytic subunit (Homo sapiens, UniProt P62136); experiment: inhibition of protein phosphatase 1 activity – biochemical, fluorescence, dose response (AID 2394)
Sequence of Serine/threonine-protein phosphatase PP1-alpha catalytic subunit (P62136 whole entry): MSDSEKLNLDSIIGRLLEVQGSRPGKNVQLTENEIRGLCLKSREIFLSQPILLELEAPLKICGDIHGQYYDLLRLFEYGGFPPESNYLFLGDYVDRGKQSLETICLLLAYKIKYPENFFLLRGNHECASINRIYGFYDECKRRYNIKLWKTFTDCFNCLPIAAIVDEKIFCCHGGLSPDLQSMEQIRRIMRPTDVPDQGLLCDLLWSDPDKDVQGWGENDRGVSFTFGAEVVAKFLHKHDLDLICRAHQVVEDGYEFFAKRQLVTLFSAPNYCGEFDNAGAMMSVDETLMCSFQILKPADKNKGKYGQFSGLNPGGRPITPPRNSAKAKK

[3] = target: Serine/threonine-protein phosphatase (Homo sapiens, UniProt Q9BPW0); experiment: inhibition of protein phosphatase 5 activity – biochemical, fluorescence, dose response (AID 2395)
Sequence of Serine/threonine-protein phosphatase (Q9BPW0 whole entry): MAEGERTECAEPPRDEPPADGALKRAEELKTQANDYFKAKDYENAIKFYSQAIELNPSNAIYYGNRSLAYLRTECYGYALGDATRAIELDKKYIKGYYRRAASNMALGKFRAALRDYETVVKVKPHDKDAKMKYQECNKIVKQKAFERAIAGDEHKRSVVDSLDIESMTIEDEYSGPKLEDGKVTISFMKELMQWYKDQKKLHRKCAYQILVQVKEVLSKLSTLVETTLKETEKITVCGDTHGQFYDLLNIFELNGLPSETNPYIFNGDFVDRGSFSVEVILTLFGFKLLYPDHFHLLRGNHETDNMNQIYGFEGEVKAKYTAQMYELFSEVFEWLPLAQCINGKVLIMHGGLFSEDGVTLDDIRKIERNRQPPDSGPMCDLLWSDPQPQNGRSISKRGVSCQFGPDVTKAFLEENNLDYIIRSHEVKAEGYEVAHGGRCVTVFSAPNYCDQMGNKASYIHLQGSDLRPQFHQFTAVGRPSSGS

[4] = target: T2, Sentrin-specific protease 8 (Homo sapiens, UniProt Q96LD8); experiment: inhibition of human SENP8 cleavage activity – biochemical, luminescence, SAR follow-up (AID 504501); type: functional
T2 sequence (Q96LD8 whole entry): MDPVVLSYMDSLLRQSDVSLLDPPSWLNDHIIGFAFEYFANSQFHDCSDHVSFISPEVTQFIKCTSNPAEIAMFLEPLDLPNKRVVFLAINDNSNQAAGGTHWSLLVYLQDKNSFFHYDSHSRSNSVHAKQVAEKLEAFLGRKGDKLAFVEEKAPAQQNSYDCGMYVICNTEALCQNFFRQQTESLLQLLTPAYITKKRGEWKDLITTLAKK

[5] = target: Polyadenylate-binding protein 1 (Homo sapiens, UniProt P11940); experiment: MLLE domain peptide-binding blockers, IC50 – biochemical, fluorescence polarization, FITC-PAM2 peptide, dose response (AID 602259); type: functional; conditions: read-out: IC50_Mean
Sequence of Polyadenylate-binding protein 1 (P11940 whole entry, the tested form may be a part): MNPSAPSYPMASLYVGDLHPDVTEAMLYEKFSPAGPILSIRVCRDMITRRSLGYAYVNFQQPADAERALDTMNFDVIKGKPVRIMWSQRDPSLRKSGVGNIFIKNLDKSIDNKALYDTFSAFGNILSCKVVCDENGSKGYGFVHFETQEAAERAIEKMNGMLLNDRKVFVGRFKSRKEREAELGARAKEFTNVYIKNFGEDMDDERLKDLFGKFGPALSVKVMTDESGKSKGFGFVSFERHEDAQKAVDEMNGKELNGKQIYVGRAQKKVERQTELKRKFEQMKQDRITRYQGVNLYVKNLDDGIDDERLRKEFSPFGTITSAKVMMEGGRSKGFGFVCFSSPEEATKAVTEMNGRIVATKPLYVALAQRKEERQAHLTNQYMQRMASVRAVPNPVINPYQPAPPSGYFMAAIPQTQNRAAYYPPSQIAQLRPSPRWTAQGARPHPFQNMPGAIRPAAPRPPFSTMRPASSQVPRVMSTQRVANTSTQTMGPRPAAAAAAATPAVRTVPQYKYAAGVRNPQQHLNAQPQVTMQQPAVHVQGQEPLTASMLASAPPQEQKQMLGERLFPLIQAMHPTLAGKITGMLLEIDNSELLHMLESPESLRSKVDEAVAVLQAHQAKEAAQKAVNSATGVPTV

[6] = test system: BJ; experiment: cells; type: functional, cell-based; conditions: Homo sapiens
[7] = DRD fibroblast viability loss – cell-based, non-viral oncogenic, luminescence, dose response (AID 1934); type: functional; conditions: Homo sapiens
[8] = HEK-293T viability loss after treatment – luminescence, T-cell screen hits, cytotoxicity control for TCR NF-kB inhibitor project, dose response (AID 489026); type: functional, cell-based;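 note: cells exposed to compound about 14 hours before the viability readout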
[9] = target: Nonstructural protein 1 (Influenza A virus, UniProt Q194T2); type: functional, Influenza A virus (A/California/07/2009(H1N1))
Sequence of Nonstructural protein 1 (Q194T2 whole entry): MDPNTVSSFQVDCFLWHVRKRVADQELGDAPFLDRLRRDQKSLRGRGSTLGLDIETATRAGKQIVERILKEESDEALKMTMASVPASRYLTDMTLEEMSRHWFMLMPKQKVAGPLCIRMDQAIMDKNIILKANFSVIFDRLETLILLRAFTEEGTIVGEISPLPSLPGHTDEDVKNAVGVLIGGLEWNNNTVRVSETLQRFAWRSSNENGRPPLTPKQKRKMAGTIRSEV

[10] = test system: BJ; experiment: growth inhibition of engineered Ras-driven BJ cells – cell-based, alamar blue fluorescence, cherrypicked samples, dose response (AID 2631); type: functional; conditions: Homo sapiens;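 note: confirmatory dose-response assay in RAS-dependent BJ fibroblasts engineered with TERT, LT and ST, with cytotoxicity read by fluorescence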
[11] = viability loss in HeLa cells – cytotoxicity control for MgcRacGAP inhibitor project, dose response (AID 624300); type: functional
[12] = target: Paired box protein Pax-8 (Homo sapiens, UniProt Q06710); experiment: PAX8 transcriptional activity inhibition in RMG-I – RMG-I cells, luciferase, cherry-pick, dose response (AID 687027); type: functional, cell-based;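 note: luciferase reporter driven by Pax8 target thyroperoxidase promoter measured by SteadyGlo luminescence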
Sequence of Paired box protein Pax-8 (Q06710 whole entry): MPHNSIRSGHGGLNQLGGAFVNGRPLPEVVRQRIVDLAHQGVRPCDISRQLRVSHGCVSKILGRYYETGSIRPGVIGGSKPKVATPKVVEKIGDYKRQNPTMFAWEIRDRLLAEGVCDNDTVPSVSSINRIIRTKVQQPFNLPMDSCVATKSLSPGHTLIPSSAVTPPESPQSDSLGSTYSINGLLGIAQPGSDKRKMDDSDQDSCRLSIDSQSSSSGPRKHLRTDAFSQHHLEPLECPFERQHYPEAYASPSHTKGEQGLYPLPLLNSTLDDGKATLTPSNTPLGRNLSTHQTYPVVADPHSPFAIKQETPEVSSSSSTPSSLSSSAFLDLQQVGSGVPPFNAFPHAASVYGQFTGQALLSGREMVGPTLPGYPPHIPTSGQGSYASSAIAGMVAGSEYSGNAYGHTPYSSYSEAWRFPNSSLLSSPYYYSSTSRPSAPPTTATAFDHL

[13] = general cell-killing toxicity readout – plate reader, dry powder samples, cytotoxicity control for PAX8 inhibitor project, dose response (AID 743021); type: functional, cell-based
[14] = target: SUMO-activating enzyme (Homo sapiens, UniProt Q9UBT2); experiment: blockers of UBC9-mediated SUMO conjugation – biochemical, AlphaScreen, SUMOylation inhibitor project, confirmation (AID 2018); type: functional
Sequence of SUMO-activating enzyme (Q9UBE0 whole entry): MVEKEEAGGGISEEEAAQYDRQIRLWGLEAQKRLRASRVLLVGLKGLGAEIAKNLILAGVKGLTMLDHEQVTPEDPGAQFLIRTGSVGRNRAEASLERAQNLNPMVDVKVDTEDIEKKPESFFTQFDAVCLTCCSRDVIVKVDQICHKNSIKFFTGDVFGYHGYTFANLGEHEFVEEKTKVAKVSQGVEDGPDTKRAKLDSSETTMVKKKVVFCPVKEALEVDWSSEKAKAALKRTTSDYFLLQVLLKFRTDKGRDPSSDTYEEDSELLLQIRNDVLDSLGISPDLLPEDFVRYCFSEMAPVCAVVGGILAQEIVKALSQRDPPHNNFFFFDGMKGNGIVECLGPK
Sequence of SUMO-activating enzyme (Q9UBT2 whole entry): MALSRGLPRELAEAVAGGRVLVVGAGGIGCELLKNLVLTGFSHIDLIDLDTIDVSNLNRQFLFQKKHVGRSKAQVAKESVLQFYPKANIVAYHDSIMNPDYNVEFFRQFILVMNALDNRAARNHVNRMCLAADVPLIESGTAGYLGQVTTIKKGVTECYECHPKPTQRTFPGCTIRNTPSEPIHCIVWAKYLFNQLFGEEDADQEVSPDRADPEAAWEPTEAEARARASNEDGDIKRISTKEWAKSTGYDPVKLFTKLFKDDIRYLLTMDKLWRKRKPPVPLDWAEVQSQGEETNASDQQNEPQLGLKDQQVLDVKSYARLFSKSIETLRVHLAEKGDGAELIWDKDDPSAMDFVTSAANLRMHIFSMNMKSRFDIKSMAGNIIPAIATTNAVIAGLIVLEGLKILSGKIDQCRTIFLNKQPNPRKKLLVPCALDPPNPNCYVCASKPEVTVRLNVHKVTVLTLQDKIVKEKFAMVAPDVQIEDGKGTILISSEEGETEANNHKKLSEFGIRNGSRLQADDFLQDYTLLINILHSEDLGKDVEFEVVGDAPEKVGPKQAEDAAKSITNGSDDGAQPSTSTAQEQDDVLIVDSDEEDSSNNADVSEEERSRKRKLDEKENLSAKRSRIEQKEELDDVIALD

[15] = Trypanosoma cruzi growth suppression in host cells – NIH3T3 host cells, beta-gal luminescence, confirmation (AID 2044); type: functional, cell-based;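 note: intracellular parasites grown in NIH/3T3 mouse fibroblasts as host cells; luminescent beta-galactosidase reporter signal from transgenic T. cruzi replicating inside host cells; inhibitors lower the luminescence signal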
[16] = NIH3T3 cell viability loss – ATP luminescence, mouse fibroblasts, counter-screen, dose response (AID 2010); type: functional, cell-based;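 note: cells exposed to compound for about 90 hours before reading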
[17] = target: T3, Histone-lysine N-methyltransferase NSD2 (Homo sapiens, UniProt O96028); type: biochemical
T3 sequence (O96028 whole entry): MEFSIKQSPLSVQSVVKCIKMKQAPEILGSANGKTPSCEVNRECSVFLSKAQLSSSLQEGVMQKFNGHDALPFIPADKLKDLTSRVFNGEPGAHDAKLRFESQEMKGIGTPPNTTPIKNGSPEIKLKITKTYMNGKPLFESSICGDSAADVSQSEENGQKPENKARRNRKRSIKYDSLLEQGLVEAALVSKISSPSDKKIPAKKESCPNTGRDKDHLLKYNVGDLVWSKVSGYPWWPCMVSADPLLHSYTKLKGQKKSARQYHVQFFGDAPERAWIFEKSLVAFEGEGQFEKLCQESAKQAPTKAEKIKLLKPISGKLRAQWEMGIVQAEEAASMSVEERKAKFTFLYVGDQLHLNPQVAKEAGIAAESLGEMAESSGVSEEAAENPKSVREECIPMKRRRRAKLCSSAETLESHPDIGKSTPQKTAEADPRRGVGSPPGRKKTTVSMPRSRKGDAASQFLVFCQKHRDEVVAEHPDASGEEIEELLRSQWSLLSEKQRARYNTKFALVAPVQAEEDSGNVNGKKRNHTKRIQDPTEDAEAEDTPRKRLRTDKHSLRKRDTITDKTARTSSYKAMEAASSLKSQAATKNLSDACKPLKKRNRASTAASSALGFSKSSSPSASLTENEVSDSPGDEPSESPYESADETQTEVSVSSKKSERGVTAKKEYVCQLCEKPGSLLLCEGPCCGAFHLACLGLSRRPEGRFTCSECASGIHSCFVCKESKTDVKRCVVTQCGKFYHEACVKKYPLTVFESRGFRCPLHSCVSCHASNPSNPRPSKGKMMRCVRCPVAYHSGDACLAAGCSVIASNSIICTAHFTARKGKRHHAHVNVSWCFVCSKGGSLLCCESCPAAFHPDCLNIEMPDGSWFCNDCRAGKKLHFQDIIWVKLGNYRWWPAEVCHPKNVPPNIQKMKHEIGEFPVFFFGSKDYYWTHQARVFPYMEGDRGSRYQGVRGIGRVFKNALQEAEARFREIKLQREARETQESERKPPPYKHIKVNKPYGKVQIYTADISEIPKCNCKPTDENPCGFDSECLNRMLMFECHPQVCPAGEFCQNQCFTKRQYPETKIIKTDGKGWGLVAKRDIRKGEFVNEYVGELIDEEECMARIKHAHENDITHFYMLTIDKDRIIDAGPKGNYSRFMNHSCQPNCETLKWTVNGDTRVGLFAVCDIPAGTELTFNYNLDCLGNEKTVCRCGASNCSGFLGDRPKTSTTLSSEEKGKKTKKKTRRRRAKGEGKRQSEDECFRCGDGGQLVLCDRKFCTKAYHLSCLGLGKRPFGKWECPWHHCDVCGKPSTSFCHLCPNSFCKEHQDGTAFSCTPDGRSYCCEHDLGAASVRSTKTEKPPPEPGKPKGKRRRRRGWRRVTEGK

Cc1cccc(C)c1-n1cccc1/C=C1\SC(=S)N(c2cccc(C(=O)O)c2)C1=O
EC50 [1]: 3.8 µM (active)

Oc1ccc(/C=N/Nc2cc(N3CCCC3)nc(N3CCCC3)n2)cc1
IC50 [2]: > 67 µM (not active)
IC50 [3]: 10.9 µM (not active)
IC50 [4]: > 99 µM (inactive)
IC50 [5]: 34.4 µM (inactive)

COc1ccc(S(=O)(=O)/N=C2\C=C(Nc3ccc(O)cc3)C(=O)c3ccccc32)cc1
EC50 [6]: 3.21 µM (inconclusive)
EC50 [7]: 2.89 µM (active)
IC50 [8]: 4.19 µM (active)
IC50 [9]: 8.09 µM (active)
EC50 [10]: 0.507 µM (inconclusive)
CC50 [11]: 2.15 µM (active)
AC50 [12]: 1.86 µM (active)
AC50 [13]: 7.4 µM (active)

COc1ccc(/C=N/Nc2cc(N3CCCC3)nc(N3CCCC3)n2)cc1
IC50 [14]: 0.68 µM (active)
EC50 [15]: 1.71 µM (active)
EC50 [16]: 8.97 µM (active)
AC50 [17]: 2.01 µM (active)
